Where a name gives a salt, the structure may show the parent alone. Read-outs that look alike come from different tables or passages of the source.
Test system: potassium-stimulated 45Ca uptake of synaptosomes
Assay: Potassium-stimulated 45Ca uptake into synaptosomes
Type: cell-based, rat
Description: Several compounds were also tested to determine whether the Ca^2+ dependent and independent components of glutamate release are related to the blockage of ^45 Ca uptake. Calcium uptake is one step in the cascade of events which occur in neuronal cell death from ischemia. See Bassaclough and Leach, Current Patents Ltd., 2-27. The Ca-flux protocol is as follows. Rat brain synaptosomes were prepared according to Hajos, Brain Res. 93:485 (1975). Synaptosomes were suspended in low potassium "LK" buffer (containing 3 mM KCl) at 2 mg/ml. […] After 5 seconds, the ^45 Ca flux was stopped with 0.9 ml quench solution (LK+10 mM EGTA). The solution was filtered under vacuum and the filters washed with 15 ml of quench buffer. The effect of drug is expressed as % inhibition (or block) of control potassium-stimulated ^45 Ca influx. This method is an adaptation of the method disclosed by Nachsen and Blaustein, J. Physiol. 361:251-268 (1985).

[1] = Rattus norvegicus, read-out: Inhibition of 45Ca Uptake, % Inhibition @ 10 uM (SEM)
[2] = Rattus norvegicus, read-out: % Uptake vs. Control
[3] = Rattus norvegicus; read-out: Inhibition of 45Ca Uptake, IC50
[4] = 10 μM; potassium-stimulated uptake of calcium into synaptosomes

Molecule | inhibition at 10 µM [1] [%] | activity at 10 µM [2] [%] | further results
N=C(Nc1ccc2cccc3c2c1CC3)Nc1ccc2cccc3c2c1CC3 [N,N'-Bis (3-acenaphthyl)guanidine, N,N'-Bis (3-Acenaphthyl)Guanidine Hydrobromide] | 36 |  | IC50 (Rattus norvegicus, read-out: Inhibition of 45Ca Uptake, IC50): 11 µM
N=C(NN1CCCc2ccccc21)NN1CCCc2ccccc21 [N,N'-Bis(1,2,3,4-tetrahydro-1-quinolinyl)-guanidine] |  | 87 | 
N=C(NC1CCc2ccccc21)NC1CCc2ccccc21 (stereo not shown) [N,N'-Bis(indan-1-yl)-guanidine] |  | 88 | 
CCc1cccc(N2CCN(c3cccc(CC)c3)C2=N)c1 [N,N'-Bis(m-ethylphenyl)-2-imino-imidazolidine] |  | 101 | 
Cc1ccccc1N1CCCCN(c2ccccc2C)C1=N [N,N'-Bis(o-tolyl)-N,N'-butanyl(bridge)-guanidine] |  | 119 | 
CC(C)(C)c1ccc(NC(=N)Nc2ccc(C(C)(C)C)cc2)cc1 [N,N'-Bis(p-tert.-butylphenyl) guanidine] | 47 |  | 
CC(C)c1ccc(NC(=N)Nc2ccc(C(C)C)cc2)cc1 [N,N'-Di-(4-isopropylphenyl)guanidine] | 48 |  | IC50 [3]: 19 ± 7 µM
CC(C)c1ccc(NC(=N)Nc2ccc3c4c(cccc24)CC3)cc1 [N-(3- and 5-Acenaphthyl)-N'-(4-isopropylphenyl)-guanidine.HCl] | 68 |  | IC50 [3]: 6.5 ± 1 µM
N=C(Nc1cccc2ccccc12)Nc1ccc2c3c(cccc13)CC2 [N-(5-acenaphthyl)-N'-(1-naphthyl)guanidine] | 40 ± 6 |  | IC50 [3]: 16.2 ± 0.4 µM
N=C(Nc1ccc2c3c(cccc13)CC2)NC12CC3CC(CC(C3)C1)C2 [N-(5-acenaphthyl)-N'-(adamant-1-yl)guanidine] | 47 ± 11 |  | IC50 [3]: 9.7 ± 3 µM
CCc1cccc(N(C)C(=N)Nc2cccc3ccc(=O)oc23)c1 [N-(8-Aminocoumarinyl)-N'-(m-ethylphenyl)-N'-methyl-guanidine] |  | 151 | 
N=C(Nc1cccc2ccccc12)NC12CC3CC(CC(C3)C1)C2 [N-(Adamantan-1-yl)-N' (α-naphthyl)guanidine] | 31 |  | 
N=C(Nc1cccc2nsnc12)NC12CC3CC(CC(C3)C1)C2 [N-(Adamantan-1-yl)-N'-(4,5-benzo-2-thia-1,3-diazol-6-yl)guanidine] |  |  | % Uptake vs. Control [4]: 98%
N=C(NC1C2CC3CC(C2)CC1C3)NC12CC3CC(CC(C3)C1)C2 (stereo not shown) [N-(Adamantan-1-yl)-N'-(adamantan-2-yl)guanidine] | 49 |  | 
N=C(NC1CCCCC1)NN1CCCCC1 [N-(Cyclohexyl)-N'-(1-piperidinyl)-guanidine] |  | 108 | 
CCOC(=O)c1cc2cccc(NC(=N)N(C)c3cccc(CC)c3)c2o1 [N-(m-Ethylphenyl)-N'-(2-carboethoxy-7-benzofuranyl)-N-methyl guanidine] |  | 71 | 
N=C(Nc1cccc2ccccc12)NN1CCCCC1 [N-(α-Naphthyl)-N'-(1-piperidinyl)-guanidine] |  | 131 | 
CCc1cccc(NC(=NC#N)Nc2cccc3ccccc23)c1 [N-(α-Naphthyl)-N'-(m-ethylphenyl)-N"-cyano-guanidine] |  | 95 | 
N=C(NCC12CC3CC(CC(C3)C1)C2)NCC12CC3CC(CC(C3)C1)C2 [N-N'-Bis(1-Adamantanemethyl)-guanidine] |  | 111 | 
N-(α-Naphthyl)-N'-(4-phenylpiperidinyl)-guanidine |  |  | % Uptake vs. Control [4]: 79%

From patent US5686495A, “Substituted hydrazinedicarboximidamides and methods of use thereof” (Cambridge NeuroScience, Inc., priority 1995, dated 1997)
